According to patent US20240148747A1, “SMALL MOLECULE ACTIVATORS OF YAP TRANSCRIPTIONAL ACTIVITY FOR REGENERATIVE ORGAN REPAIR” (THE SCRIPPS RESEARCH INSTITUTE, priority 2021, published 2024):
Like-named read-outs stand apart in the source and are kept apart here.

Key:
[1] = test system: YAP; assay: TEAD-LUC activation assay (293A-TEAD-LUC reporter); assay type: cell-based; settings: Homo sapiens
Source text: More specifically, we used a 293A cell line harboring a stably integrated cassette containing 8 copies of the TEAD binding element upstream of luciferase (8xGTII-LUC). These cells retain responsiveness to contact inhibition-induced decreases in YAP transcriptional output.^6 The TEAD-responsive reporter assay (called 293A-TEAD-LUC throughout) was adapted to 1536-well format and then used to screen a library of ˜738k compounds for YAP-inducing activity.
Additional compounds of the present disclosure were subjected to the assay described above.

[2] = test system: YAP-controlled transcripts (ANRKD1, CYR61, CTGF); assay: YAP-controlled transcript levels in 293A and other human cell lines; assay type: cell-based
[3] = test system: YAP and TEAD proteins; assay: YAP-TEAD association and YAP nuclear localization in cells; assay type: cell-based
[4] = test system: primary mouse epidermal keratinocytes; assay: Colony formation of primary mouse epidermal keratinocytes on dermal feeder layer; assay type: cell-based; settings: 10-day growth period on dermal feeder layer
Source text: We evaluated the proliferative response of primary cells and tissues to compound 13 treatment. […] In addition, compound 13 treatment allowed for the secondary re-plated expansion of Rhodamine B-stained keratinocytes and the time-dependent expression of YAP-driven transcript Cyr61 (FIGS. 2A-C).

[5] = test system: epidermis of wildtype adult C57BL/6 mice; assay: Topical application to dorsal skin of C57BL/6 mice (epidermal remodeling); assay type: in vivo, mouse
Method: When applied topically to the dorsal skin of wildtype adult C57BL/6 mice over the course of ten days, compound 13 (10 uM) promoted a dramatic expansion of keratinocytes and K14-positive precursors as assessed by […] and anti-K14 histological staining at study end (FIG. 2D).
(§1) Compound 13 treatment, in an exemplary embodiment, promotes wound healing in human cells and induces a pro-proliferative effect on keratinocytes in the human skin surrogate species, the Yucatan mini pig. Accordingly, there was developed a gel-based formulation of compound 13, which allows for its stable room temperature storage and its topical delivery in high concentrations (up to about 1.5 weight percent).

[6] = test system: Yucatan mini-pig skin; assay: Topical delivery in the Yucatan mini pig; assay type: in vivo
Source text: as §1

[7] = test system: human skin equivalents; assay: Wound healing in human skin equivalents (3 mm full thickness wound); assay type: cell-based
Source text: as §1

[8] = Cytotoxicity in the TEAD-LUC activation assay; settings: human
[9] = in vitro; settings: human
[10] = Table 4, read-out: TEAD-LUC activation assay EC50

O=C(NCCCc1nccs1)c1cc(-c2ccccc2)on1 [Compound 13, 5-phenyl-N-(3-(thiazol-2-yl)propyl)isoxazole-3-carboxamide]
EC50 ([1]; Table 3, read-out: TEAD-LUC activation assay EC50): 1 µM | EC50 ([1]; absence of serum, high cell density, read-out: EC50 of luciferase activity induction in 293A-TEAD-LUC cells): 1.6 µM | EC50 ([1]; presence of serum, high cell density, read-out: EC50 of luciferase activity induction in 293A-TEAD-LUC cells): 1.5 µM | levels of YAP-controlled transcripts (ANRKD1, CYR61, CTGF) ([2]; 293A cells and MCF-10A, HEK293T, H69, HaCaT): robustly increased | levels of YAP itself (YAP1) ([2]; 293A cells and other human cell lines): did not augment | association of YAP and TEAD proteins in cells [3]: dose-dependently promoted | nuclear localization of YAP ([3]; in response to increased cell density): induced the nuclear localization of YAP | colony forming potential [4]: ~10 fold | YAP-dependent transcripts Ctgf, Cyr61, and Ankrd1 ([5]; endpoint of the experiment): robust upregulation | epidermal thickening, gel-based formulation versus drug in acetone or DMSO ([5]; topical delivery, mouse): to a more significant degree | epidermal thickness ([5]; topical, ten days, 10 uM, wildtype mice): approximate doubling | KI-67 positive keratinocytes ([5]; topical, ten days, study end): substantially increased | epidermal hyperplasia, dermal hyperplasia, YAP-dependent gene expression [6]: promoted epidermal hyperplasia, dermal hyperplasia, and YAP-dependent gene expression | keratinocyte hyperplasia and wound contraction [7]: promoted the hyperplasia of keratinocytes and promoted wound contraction | IC50 [8]: 13.7 µM

CN1[C@H]2CC[C@@H]1CN(C(=O)c1cc(-c3ccccc3)on1)CC2 [Compound 129]
EC50 [1, 10]: > 20 µM | IC50 [9]: > 20 µM

CCc1cccc(NC(=O)C2CCN(C(=O)c3cc(-c4ccncc4)[nH]n3)CC2)c1 [Compound 155]
EC50 [1, 10]: 5 µM | IC50 [8]: > 20 µM

Cc1ccc(N2CC(C(=O)NCc3n[nH]c4ccccc34)CC2=O)cc1 (centres unmarked) [Compound 156]
EC50 [1, 10]: 5 µM | IC50 [8]: > 20 µM

COc1ccc2cc(NC(=O)c3n[nH]c4c3CCCCC4)cnc2c1 [Compound 157]
EC50 [1, 10]: 10 µM | IC50 [8]: > 20 µM
